Test results from patent publication US12600725B2 (Memorial Sloan-Kettering Cancer Center, priority 2013, dated 2026).

Tests used:
Hsp90α = Hsp90α (Homo sapiens, UniProt P07900); test: biochemical; conditions: FP competition, 6 nM Cy3B-GM, 10 nM protein, 4° C. for 24 h
Grp94 = Grp94 (Canis lupus familiaris, UniProt P41148); conditions: read-out: Grp94; FP competition, 6 nM Cy3B-GM, 10 nM protein, 4° C. for 24 h
Chain of Grp94 (P41148 with tags, fused parts or gaps DELINS287-327GGGG): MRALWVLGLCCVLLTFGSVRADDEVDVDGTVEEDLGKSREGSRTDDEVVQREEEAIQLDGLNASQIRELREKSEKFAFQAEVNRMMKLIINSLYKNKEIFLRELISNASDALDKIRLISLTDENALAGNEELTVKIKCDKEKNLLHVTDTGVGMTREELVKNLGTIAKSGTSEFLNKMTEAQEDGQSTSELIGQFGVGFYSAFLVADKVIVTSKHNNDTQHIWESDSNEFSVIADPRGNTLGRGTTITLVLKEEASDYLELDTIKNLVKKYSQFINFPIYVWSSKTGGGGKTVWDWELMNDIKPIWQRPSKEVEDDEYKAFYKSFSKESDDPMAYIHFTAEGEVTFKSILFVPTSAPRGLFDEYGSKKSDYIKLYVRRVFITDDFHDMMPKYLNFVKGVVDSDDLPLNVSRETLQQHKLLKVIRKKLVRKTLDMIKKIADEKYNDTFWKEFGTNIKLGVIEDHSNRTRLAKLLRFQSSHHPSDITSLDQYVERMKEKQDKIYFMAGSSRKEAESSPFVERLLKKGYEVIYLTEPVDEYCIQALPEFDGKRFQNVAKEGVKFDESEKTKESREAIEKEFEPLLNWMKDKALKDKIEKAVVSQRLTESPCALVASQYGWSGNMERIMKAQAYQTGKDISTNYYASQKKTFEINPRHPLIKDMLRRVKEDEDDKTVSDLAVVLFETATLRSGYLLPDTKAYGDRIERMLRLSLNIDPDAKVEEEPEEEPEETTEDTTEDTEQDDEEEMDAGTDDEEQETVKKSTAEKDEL

Compound | IC50 (Hsp90α) | IC50 (Grp94)
C#CCN(CCO)CCn1c(Sc2ccc(Cl)cc2Cl)nc2c(N)ncnc21 [HJP-V-110, 2-((2-(6-Amino-8-((2,4-dichlorophenyl)thio)-9H-purin-9-yl)ethyl)(prop-2-yn-1-yl)amino)ethanol] | > 50 µM | 0.6 µM
CCCC(C)n1c(Sc2ccc(Cl)cc2Cl)nc2c(N)ncnc21 (stereo not shown) [HJP-V-114, 8-((2,4-Dichlorophenyl)thio)-9-(pentan-2-yl)-9H-purin-6-amine] | > 50 µM | 2.48 µM
Nc1ncnc2c1nc(Sc1ccc(Cl)cc1Cl)n2CCc1cccnc1 [HJP-V-116, 8-((2,4-Dichlorophenyl)thio)-9-(2-(pyridin-3-yl)ethyl)-9H-purin-6-amine] | > 50 µM | 0.12 to 0.3 µM
Nc1ncnc2c1nc(Sc1ccc(Cl)cc1Cl)n2CCc1ccncc1 [HJP-V-118, 8-((2,4-Dichlorophenyl)thio)-9-(2-(pyridin-4-yl)ethyl)-9H-purin-6-amine] | > 50 µM | 1.03 µM
CC(O)CNCCCn1c(Sc2cc(Cl)cc(Cl)c2)nc2c(N)ncnc21 (stereo not shown) [HJP-V-130, 1-((3-(6-amino-8-((3,5-dichlorophenyl)thio)-9H-purin-9-yl)propyl)amino)propan-2-ol] | 51.7 µM | 0.37 µM
C#CCN(CCO)CCCn1c(Sc2cc(Cl)cc(Cl)c2)nc2c(N)ncnc21 [HJP-V-132, 2-((3-(6-amino-8-((3,5-dichlorophenyl)thio)-9H-purin-9-yl)propyl)(prop-2-yn-1-yl)amino)ethanol] | 26.6 µM | 0.81 µM
Nc1ncnc2c1nc(Sc1cc(Cl)cc(Cl)c1)n2CCCN1CC(O)C1 [HJP-V-134, 1-(3-(6-amino-8-((3,5-dichlorophenyl)thio)-9H-purin-9-yl)propyl)azetidin-3-ol] | > 10 µM | 0.38 µM
Nc1ncnc2c1nc(Sc1cc(Cl)cc(Cl)c1)n2CCc1cccnc1 [HJP-V-140, 8-((3,5-dichlorophenyl)thio)-9-(2-(pyridin-3-yl)ethyl)-9H-purin-6-amine] | > 50 µM | 7.9 µM
Nc1ncnc2c1nc(Sc1cc(Cl)cc(I)c1)n2CCc1cccnc1 [HJP-V-147, 8-((3-chloro-5-iodophenyl)thio)-9-(2-(pyridin-3-yl)ethyl)-9H-purin-6-amine] | 72.5 µM | 0.86 µM
COc1ccc(-c2cc(Cl)cc(Sc3nc4c(N)ncnc4n3CCCNC(C)C)c2)cc1 [HJP-VI-3, 8-((5-chloro-4′-methoxy-[1,1′-biphenyl]-3-yl)thio)-9-(3-(isopropylamino)propyl)-9H-purin-6-amine] | > 25 µM | 2.7 µM
COc1cccc(-c2cc(Cl)cc(Sc3nc4c(N)ncnc4n3CCCNC(C)C)c2)c1 [HJP-VI-7, 8-((5-chloro-3′-methoxy-[1,1′-biphenyl]-3-yl)thio)-9-(3-(isopropylamino)propyl)-9H-purin-6-amine] | 47.5 µM | 0.26 µM
CC(C)NCCCn1c(Sc2cc(Cl)cc(-c3cccc([N+](=O)[O-])c3)c2)nc2c(N)ncnc21 [HJP-VI-8, 8-((5-chloro-3′-nitro-[1,1′-biphenyl]-3-yl)thio)-9-(3-(isopropylamino)propyl)-9H-purin-6-amine] | 47.3 µM | 0.58 µM
CC(C)NCCCn1c(Sc2cc(Cl)cc(-c3cccc(C(F)(F)F)c3)c2)nc2c(N)ncnc21 [HJP-VI-9, 8-((5-chloro-3′-(trifluoromethyl)-[1,1′-biphenyl]-3-yl)thio)-9-(3-(isopropylamino)propyl)-9H-purin-6-amine] | 13.8 µM | 0.26 µM
CC(C)NCCCn1c(Sc2cc(Cl)cc(-c3cccs3)c2)nc2c(N)ncnc21 [HJP-VI-10, 8-((3-chloro-5-(thiophen-2-yl)phenyl)thio)-9-(3-(isopropylamino)propyl)-9H-purin-6-amine] | 7.9 µM | 0.16 µM
CC(C)=C(C)c1cc(Cl)cc(Sc2nc3c(N)ncnc3n2CCCNC(C)C)c1 [HJP-VI-14, 8-((3-chloro-5-(3-methylbut-2-en-2-yl)phenyl)thio)-9-(3-(isopropylamino)propyl)-9H-purin-6-amine] | > 50 µM | 0.16 µM
CC(C)NCCCn1c(Sc2ccc(Cl)cc2F)nc2c(N)ncnc21 [HJP-VI-23, 8-((4-chloro-2-fluorophenyl)thio)-9-(3-(isopropylamino)propyl)-9H-purin-6-amine] | > 50 µM | 1.5 µM
CC(C)NCCCn1c(Sc2cc(Cl)cc(-c3ccco3)c2)nc2c(N)ncnc21 [HJP-VI-30, 8-((3-chloro-5-(furan-2-yl)phenyl)thio)-9-(3-(isopropylamino)propyl)-9H-purin-6-amine] | 16.7 µM | 0.32 µM
CC(C)NCCCn1c(Sc2ccc(Cl)cc2[N+](=O)[O-])nc2c(N)ncnc21 [HJP-VI-32, 8-((4-chloro-2-nitrophenyl)thio)-9-(3-(isopropylamino)propyl)-9H-purin-6-amine] | 14.2 µM | > 5 µM
Cc1ccc(-c2cc(Cl)cc(Sc3nc4c(N)ncnc4n3CCCNC(C)C)c2)o1 [HJP-VI-38, 8-((3-chloro-5-(5-methylfuran-2-yl)phenyl)thio)-9-(3-(isopropylamino)propyl)-9H-purin-6-amine] | 25.9 µM | 0.75 µM
CC(C)NCCCn1c(Sc2ccc(Cl)cc2-c2ccc[nH]2)nc2c(N)ncnc21 [HJP-VI-42, 8-((4-chloro-2-(1H-pyrrol-2-yl)phenyl)thio)-9-(3-(isopropylamino)propyl)-9H-purin-6-amine] | 66.9 µM | 1.1 µM
CC(C)NCCCn1c(Sc2cc(Cl)cc(-c3cn[nH]c3)c2)nc2c(N)ncnc21 [HJP-VI-46, 8-((3-chloro-5-(1H-pyrazol-4-yl)phenyl)thio)-9-(3-(isopropylamino)propyl)-9H-purin-6-amine] | 15.9 µM | 1.9 µM

Compound | IC50 (Hsp90α) | IC50 (Grp94)
CC(C)C#Cc1cc(Cl)cc(Sc2nc3c(N)ncnc3n2CCCNC(C)C)c1 [HJP-VI-51, 8-((3-chloro-5-(3-methylbut-1-yn-1-yl)phenyl)thio)-9-(3-(isopropylamino)propyl)-9H-purin-6-amine] | > 50 µM | 1.2 µM
CC(C)NCCCn1c(Sc2cc(Cl)cc(C#CC3CC3)c2)nc2c(N)ncnc21 [HJP-VI-52, 8-((3-chloro-5-(cyclopropylethynyl)phenyl)thio)-9-(3-(isopropylamino)propyl)-9H-purin-6-amine] | > 50 µM | 0.18 µM
CC(C)NCCCn1c(Sc2cc(Cl)cc(C#CC(C)(C)C)c2)nc2c(N)ncnc21 [HJP-VI-53, 8-((3-chloro-5-(3,3-dimethylbut-1-yn-1-yl)phenyl)thio)-9-(3-(isopropylamino)propyl)-9H-purin-6-amine] | > 50 µM | 0.63 µM
CC(C)NCCCn1c(Sc2cc(Cl)cc(C#CCO)c2)nc2c(N)ncnc21 [HJP-VI-58, 3-(3-((6-amino-9-(3-(isopropylamino)propyl)-9H-purin-8-yl)thio)-5-chlorophenyl)prop-2-yn-1-ol] | > 50 µM | 5.8 µM
CC(O)C#Cc1cc(Cl)cc(Sc2nc3c(N)ncnc3n2CCCNC(C)C)c1 (stereo not shown) [HJP-VI-59, 4-(3-((6-amino-9-(3-(isopropylamino)propyl)-9H-purin-8-yl)thio)-5-chlorophenyl)but-3-yn-2-ol] | > 50 µM | 7.4 µM
CC(C)=Cc1cc(Cl)cc(Sc2nc3c(N)ncnc3n2CCCNC(C)C)c1 [HJP-VI-62, 8-((3-chloro-5-(2-methylprop-1-en-1-yl)phenyl)thio)-9-(3-(isopropylamino)propyl)-9H-purin-6-amine] | > 50 µM | 0.28 µM
CC(C)NCCCn1c(Sc2cc(Cl)cc(/C=C/C3CC3)c2)nc2c(N)ncnc21 [HJP-VI-64, (E)-8-((3-chloro-5-(2-cyclopropylvinyl)phenyl)thio)-9-(3-(isopropylamino)propyl)-9H-purin-6-amine] | > 50 µM | 0.24 µM
C#CCCCn1c(Sc2cc(Cl)nc(Cl)c2)nc2c(N)ncnc21 [HJP-VI-66, 8-((2,6-dichloropyridin-4-yl)thio)-9-(pent-4-yn-1-yl)-9H-purin-6-amine] | > 5 µM | 1.9 µM
CC(C)NCCCn1c(Sc2cc(Cl)cc(/C=C/C(C)(C)C)c2)nc2c(N)ncnc21 [HJP-VI-72, (E)-8-((3-chloro-5-(3,3-dimethylbut-1-en-1-yl)phenyl)thio)-9-(3-(isopropylamino)propyl)-9H-purin-6-amine] | 14.2 µM | 0.102 µM
CC(C)NCCCn1c(Sc2ccc(Cl)cc2Cl)nc2c(N)nccc21 [HJP-VI-101, 2-((2,4-dichlorophenyl)thio)-1-(3-(isopropylamino)propyl)-1H-imidazo[4,5-c]pyridin-4-amine] | 9.2 µM | > 5 µM
C#CCCn1cnc(N)c2nc(Sc3cc(Cl)cc(Cl)c3)nc1-2 [PDP-I-14-N3, 3-(But-3-yn-1-yl)-8-((3,5-dichlorophenyl)thio)-3H-purin-6-amine] | > 50 µM | > 5 µM
C#CCCCn1cnc(N)c2nc(Sc3cccc4ccccc34)nc1-2 [PDP-I-16-N3] | > 100 µM | > 5 µM
C#CCCCn1cnc(N)c2nc(Sc3ccc(Cl)c(Cl)c3)nc1-2 [PDP-I-25-N3] | > 50 µM | 11.1 µM
C#CCCCn1cnc(N)c2nc(Sc3ccc(-n4cccc4)cc3)nc1-2 [PDP-I-51-N3] | > 50 µM | > 5 µM
C#CCCCn1c(Sc2ccc(-n3cccc3)cc2)nc2c(N)ncnc21 [PDP-I-51-N9] | > 50 µM | > 10 µM
C#CCCCn1cnc(N)c2nc(Sc3ccc(Br)cc3CC)nc1-2 [PDP-I-54-N3] | > 50 µM | > 10 µM
C#CCCCn1c(Sc2cc(Br)cc3ccn(Cc4ccc(OC)cc4)c23)nc2c(N)ncnc21 [PDP-I-55-N9] | > 50 µM | > 5 µM
C#CCCCn1cnc(N)c2nc(Sc3cn(Cc4ccc(OC)cc4)c4ncc(Br)cc34)nc1-2 [PDP-I-58-N3] | > 50 µM | > 10 µM
C#CCCCn1c(Sc2cn(Cc3ccc(OC)cc3)c3ncc(Br)cc23)nc2c(N)ncnc21 [PDP-I-58-N9] | > 50 µM | > 10 µM
C#CCCCn1cnc(N)c2nc(Sc3ccc(Cl)c4ccccc34)nc1-2 [PDP-I-77-N3] | > 50 µM | > 5 µM
